Literature values as cited in paper PMC11007962, “First-in-human study of GFH018, a small molecule inhibitor of transforming growth factor-β receptor I inhibitor, in patients with advanced solid tumors” (BMC Cancer, 2024).

Parameters: method as in PMID 25488804, PMID 26309397
Conditions: consecutive regimens; cited from earlier work

For Cc1cccc(-c2nn3c(c2-c2ccc4ncnn4c2/C=C/C(N)=O)CCC3)n1 [GFH018], the “cardiac findings in toxicology studies” value is listed as “cardiac lesions occur”.
